Settings: a range is the spread between reports

| melting point [°C] | Compound |
| --- | --- |
| 116 | CS(=O)(=O)OCCCCOS(C)(=O)=O |
| -27.3 to -27 | CC(=O)CC(=O)OC(C)C |
| 20 to 22 | O=Cc1ccccc1Br |
| 87.5 to 89 | CC(C)(C)OC(=O)NCC(=O)O |
| -88.2 to -88 | CCOC(=O)C(C)C |
| 220 to 224 | Oc1ccc2cc(O)ccc2c1 |
| 80 to 82.5 | COc1ccc(OC)c(N)c1 |
| 90.5 to 91 | c1ccc2cnncc2c1 |
| -28 to -27 | Cc1ccccc1Br |
| 13 to 17 | CCCCCCCCCCN |
| -113 | CC(C)C1CC1 |
| -91 to -90.9 | ClCC1CC1 |
| 14.5 to 16 | N#Cc1cccc(C(F)(F)F)c1 |
| 51 to 52 | COc1cc(Cl)ccc1N |
| -58 to -57.5 | CCCCCC1CCCCC1 |
| 165 to 166 | Cc1ccc(C(=O)O)cc1C |
| 6 to 7 | CCCCCCCCCCO |
| 28 to 29.5 | Cc1ccc(C#N)cc1 |
| 112 to 116 | c1ccc2c(c1)Cc1ccccc1-2 |
| -1.6 to 2 | OCCN1CCOCC1 |
| -80 to -79.7 | CCCCSCCCC |
| -124 | CC=C(C)C(C)C |
| 56 to 56.5 | O=Cc1ccccc1C=O |

| melting point [°C] | Compound |
| --- | --- |
| 21.5 to 25 | C[C@H](O)CN |
| 69 to 70 | COc1cccc(OC)c1C(C)=O |
| 63.7 to 66 | CCCCCCCCCCCCCCCCCCCCCCCCCCCCC |
| 146 to 148 | O=C(O)c1ccccc1[N+](=O)[O-] |
| 128 to 129 | C=CC(=O)NC(C)(C)C |
| 216 to 220 | Nc1ccncc1N |
| 91 to 91.5 | CC1=c2ccccc2=NC1c1ccccc1 (stereo not given) |
| -6 to -5 | CCCCCCCCCC=O |
| 43 to 44 | CC(C)(O)C(C)(C)O |
| 39 to 41 | CCCCCCCCCCCCCCCCCCCCC |
| 40.9 to 42 | Oc1ccccc1 |
| 205 to 206 | Cc1c(C(=O)O)cc([N+](=O)[O-])cc1[N+](=O)[O-] |
| 104 to 105 | C=CCC(C(=O)O)C(=O)O |
| 177 to 180 | O=C(O)C=Cc1cccc(Br)c1 |
| 22.5 to 23 | Clc1cc(Cl)nc(Cl)n1 |
| 162 | NS(=O)(=O)Cc1noc2ccccc12 |
| -128 | CC(C)=CC(C)C |
| 141 to 144 | NC(=O)NO |
| 94.5 to 97 | COc1ccc(C(=O)OC(=O)c2ccc(OC)cc2)cc1 |
| 110 to 112 | CCNC(=O)NCC |
| 4 to 4.5 | O=C1C=CCO1 |
| 116 to 117 | N#CCc1ccc([N+](=O)[O-])cc1 |
| 88.5 to 89 | Cc1cc(C=O)c(C)n1-c1ccccc1 |

| melting point [°C] | Compound |
| --- | --- |
| -32 to -31.6 | CCCCCCC(C)O (stereo not given) |
| 72 to 73 | COC(=O)NN |
| 258 to 260 | CC(=O)Nc1nnc(S(N)(=O)=O)s1 |
| 136 to 137 | O=C(O)c1ccccn1 |
| -63 to -62.6 | CCc1ccc(Cl)cc1 |
| 182 to 183 | O=C(O)c1ccc(Cl)c([N+](=O)[O-])c1 |
| 12 to 15.5 | O=C(Cl)c1ccccc1C(=O)Cl |
| -45 to -42 | C1COCOC1 |
| 40.5 to 41 | COc1cc(CCC(C)=O)ccc1O |
| 140 to 141 | Cc1ccc(OCC(=O)O)cc1 |
| 240 to 241 | NC(N)=NC(=O)c1nc(Cl)c(N)nc1N |
| 92 to 94 | O=C1C=CC(=O)N1 |
| 24 to 26 | CCCCCCCCCCCCO |
| -18 to -17.9 | CC(c1ccccc1)c1ccccc1 |
| 1 to 2 | Cc1c(N)cccc1Cl |
| 112 to 113 | CN1CCC(=C2c3ccccc3C=Cc3ccccc32)CC1 |
| 24 to 24.5 | C=CCCCCCCCCC(=O)O |
| 52 to 54.5 | COc1cc(OC)cc(OC)c1 |
| 104 to 108 | O=C(c1ccc(F)cc1)c1ccc(F)cc1 |
| 200 to 201 | Cc1c(C2(c3cc(C(C)C)c(O)c(Br)c3C)OS(=O)(=O)c3ccccc32)cc(C(C)C)c(O)c1Br |
| -100 to -99 | CCC(C)(C)C |
| 152 to 155 | O[Si](c1ccccc1)(c1ccccc1)c1ccccc1 |
| -93 to -92.9 | CC#CCC(C)C |

| melting point [°C] | Compound |
| --- | --- |
| 68 to 69 | C=CS(=O)(=O)c1ccccc1 |
| 78 to 81.3 | CCC(N)=O |
| 45 to 48 | CCCCCCCCC#CCCCCCCCC(=O)O |
| -130 | CCCCC |
| 130 to 132 | CCCCCCCCCCCC[N+](C)(C)[O-] |
| 55 to 59 | Cc1cc(Cl)nc2ccccc12 |
| 53 to 54 | CC(=O)Oc1ccc(C(C)=O)cc1 |
| -15.2 to -15 | Cc1ccc(Cl)c(Cl)c1 |
| 86 to 87 | CS(=O)(=O)c1ccccc1 |
| -77 to -73.5 | CC(C)CNCC(C)C |
| 29 to 32 | Nc1ccccc1Br |
| 67 to 69.5 | CC(C)=CC(=O)O |
| 201 to 202 | O=C(c1ccc(O)cc1O)c1ccc(O)cc1O |
| 120 to 121 | Cc1ccc(-c2ccc(C)cc2)cc1 |
| 220 | CN(C)c1cccc2c(S(N)(=O)=O)cccc12 |
| 99 to 100 | Cc1ccnc(N)c1 |
| 103 to 106 | CCCCC(N)=O |
| 16 to 19 | CC(C)(C)c1ccc(Br)cc1 |
| 114 to 116 | c1cc2c3c(c1)ccc1cccc(c13)C2 |
| 186 to 188 | OCC1OC(OC2(CO)OC(CO)C(O)C2O)C(O)C(O)C1O (stereo not given) |
| -38.2 to -38 | CC(C)(C)I |
| 19 to 21 | CCCCCCCCCCC(C)=O |
| 16.6 to 17 | CC(=O)O |

| melting point [°C] | Compound |
| --- | --- |
| 20.5 to 24 | CCCCCCCCCCCCCC=O |
| 206 to 208 | NC(=O)c1cccc2ccccc12 |
| 160 | Cc1ccnc(N)n1 |
| -137 | C=CCC(C)(C)C |
| -48 to -47.5 | C=C(C)C(=O)OC |
| 93 to 94 | COc1cc(C#N)cc(OC)c1OC |
| 76 to 78 | Cc1ccc([N+](=O)[O-])cc1Br |
| 226 to 227 | Nc1nc(N)nc(-c2ccccc2)n1 |
| -49.2 to -49 | C1=CCC=CC1 |
| 62.5 to 65.5 | Cc1cc(C)cc(O)c1 |
| 67 to 67.8 | CC#CC#CC |
| 99 to 102 | CCCCCCCCOC(=O)c1cc(O)c(O)c(O)c1 |
| 21 to 22 | CCCc1ccc(O)cc1 |
| -151 | C/C=C\CC |
| 274 to 278 | c1cc2cccc3c4cccc5cccc(c(c1)c23)c54 |
| -26 to -25.6 | CCCCCCCCCCC |
| 155 to 157 | O=C(O)c1cccc(Br)c1 |
| 87.8 to 89.5 | O=Cc1cccc(C=O)c1 |
| 204 to 206 | Cc1cc2nc[nH]c2cc1C |
| 68.5 to 72 | CCCCOC(=O)c1ccc(O)cc1 |
| -51.3 to -51 | CC(=O)OCc1ccccc1 |
| 95 | Cc1c[nH]c2ccccc12 |
| 28 to 28.6 | CCCCCCCCCCC(=O)O |

| melting point [°C] | Compound |
| --- | --- |
| 110 | CC(=O)N[C@@H](CS)C(=O)O |
| 181 to 183 | CC(=O)Nc1c(C)cccc1C |
| -30 to -29.7 | CCCCCCCCCC |
| 78 to 80.5 | OCc1cc(Cl)cc(Cl)c1 |
| -119 to -118 | CC=C(C)CCC |
| 114 to 115 | OC(CCN1CCCCC1)(c1ccccc1)C1CCCCC1 (stereo not given) |
| 170 to 175 | Oc1ccc(O)cc1 |
| 42 to 44.5 | CC(O)CNCC(C)O (stereo not given) |
| 113 to 114 | CCC(C(=O)O)C(=O)O |
| 63 to 65 | Cc1nnc(C)s1 |
| 230 | O=c1ccc2ccc(O)cc2o1 |
| -5 to -4.8 | CCc1ccc(N)cc1 |
| 216 to 218 | CC(C)(C)c1cc(O)c(C(C)(C)C)cc1O |
| 50 to 51.5 | C=C(C(=O)O)C(F)(F)F |
| 33 to 36 | O=C(Cl)c1cccc([N+](=O)[O-])c1 |
| 32.5 to 34 | CCCCCCCCCCCCCO |
| 69 to 69.4 | CCCCCCCCCCCCCCCCCCC(=O)O |
| 42 to 43 | O=C(CC(=O)C(F)(F)F)c1cccs1 |
| 190 to 192 | Nc1ccc(S(=O)(=O)Nc2ccccn2)cc1 |
| 114 to 115 | c1ccc(-c2nc3ccccc3s2)cc1 |
| 32 to 35 | O=C1CCCCCCCCCCCCCCO1 |

| Compound | melting point [°C] |
| --- | --- |
| CN(C)C(=O)C(c1ccccc1)c1ccccc1 | 134 to 135 |
| CC(C)(C)c1ccccc1O | -7 to -6.8 |
| OCCSSCCO | 25 to 26 |
| CS | -123 to -121 |
| Cc1ccc2c(c1N)C(=O)c1ccccc1C2=O | 205 to 206 |
| O=C(O)C(Br)(Br)Br | 132 |
| c1cc2c3c(cccc3c1)CC2 | 93.4 to 95 |
| Nc1ccc(Cl)cc1[N+](=O)[O-] | 116 to 118 |
| NNC(=O)NN | 154 to 158 |
| COP(=S)(OC)Oc1ccc(SC)c(C)c1 | 7 to 7.5 |
| CC(C)OC(=O)Nc1ccccc1 | 87.3 to 88 |
| Nc1cc([N+](=O)[O-])cc([N+](=O)[O-])c1 | 161 to 163 |
| Clc1ccc(C(c2ccc(Cl)cc2)C(Cl)(Cl)Cl)cc1 | 108 to 110 |
| CCOP(=O)(OCC)OCC | -56.4 to -56 |
| Fc1ccc(N=C=S)cc1 | 26 to 27 |
| O=C1OC(=O)C2C1C1(Cl)C(Cl)=C(Cl)C2(Cl)C1(Cl)Cl (stereo not given) | 233 to 237 |
| CC(CO)(CO)[N+](=O)[O-] | 150 |

| Compound | melting point [°C] |
| --- | --- |
| COc1c(Cl)cc(Cl)cc1Cl | 61 to 61.5 |
| OCCOc1ccccc1 | 12 to 14 |
| C[N+](=O)[O-] | -29 to -28.5 |
| CCCCC1(CC)C(=O)NC(=O)NC1=O | 126 to 128 |
| Cc1ccc(O)cc1Cl | 52 to 55.5 |
| CN(C)c1ccc(C(=O)c2ccc(N(C)C)cc2)cc1 | 175 to 179 |
| O=[N+]([O-])c1cc(C(F)(F)F)cc([N+](=O)[O-])c1Cl | 56 to 57 |
| O=C(O)COc1ccc(Cl)cc1Cl | 138 to 140 |
| O=C(CBr)c1ccccc1 | 49 to 50.5 |
| N#CCc1cccc(CC#N)c1 | 33 to 34 |
| ClCc1ccc(Cl)cc1Cl | -3 to -2.6 |
| CCOP(=S)(OCC)Oc1nc(Cl)c(Cl)cc1Cl | 41.5 to 42.5 |
| N#Cc1ccccn1 | 27 to 29 |
| CC(=O)c1ccc(C#N)cc1 | 57 to 59 |
| CCN(CC)c1ccccc1 | -38.8 to -38 |
| Nc1c(Cl)c(Cl)c(Cl)c(Cl)c1Cl | 232 to 235 |
| N#Cc1ccc(Cl)cc1 | 92 to 95 |
